Our source for the IC50 values is US11267812B2 (Mirati Therapeutics, Inc., priority 2016, dated 2022).

SMILES strings stand for the structures.

One assay deals with Phospho-ERK in NCI-H358 cells expressing KRas G12C. Briefly: Cellular inhibition of KRas G12C by Phospho-ERK measurement in NCI-H358 cells. The assay is classed as cell-based. The note with it: Homo sapiens, NCI-H358, 3 h, read-out: IC50 (pERK(Thr202/Tyr204) normalized with GAPDH). Summed up:
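After 8–12 h attachment, NCI-H358 cells were treated with compounds for 3 h (0.5% DMSO final), fixed, methanol-permeabilized and immunostained. pERK(Thr202/Tyr204) was read by infrared imaging and normalized to GAPDH as percent of DMSO control. IC50 came from a 4-parameter fit.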
For `C=CC(=O)N1CCN(c2nc(OC[C@H]3CCN(C)C3)nc3c2CCN(c2cc(O)cc4ccccc24)C3)CC1` [Example 188, (S)-1-(4-(7-(3-hydroxynaphthalen-1-yl)-2-((1-methylpyrrolidin-3-yl)methoxy)-5,6,7,8-tetrahydropyrido[3,4-d]pyrimidin-4-yl)piperazin-1-yl)prop-2-en-1-one], the IC50 lay within 1 to 1000 nM. For the molecule `C=CC(=O)N1CCN(c2nc(OC[C@H]3CCCN3C)nc3c2CCN(c2cc(O)cc4ccccc24)C3)CC1` [Example 187, (R)-1-(4-(7-(3-hydroxynaphthalen-1-yl)-2-((1-methylpyrrolidin-2-yl)methoxy)-5,6,7,8-tetrahydropyrido[3,4-d]pyrimidin-4-yl)piperazin-1-yl)prop-2-en-1-one], the IC50 was 1 to 1000 nM.

Staying with this assay, now noted: Homo sapiens; NCI-H358 cells, 3 hours compound treatment; read-out: IC50 (pERK(Thr202/Tyr204) normalized with GAPDH).
As for `C=CC(=O)N1CCN(c2nc(OCC3CN(C)CCO3)nc3c2CCN(c2cc(O)cc4ccccc24)C3)CC1` (stereo not shown) [Example 193, 1-(4-(7-(3-hydroxynaphthalen-1-yl)-2-((4-methylmorpholin-2-yl)methoxy)-5,6,7,8-tetrahydropyrido[3,4-d]pyrimidin-4-yl)piperazin-1-yl)prop-2-en-1-one], the IC50 was in the range of 1 to 1000 nM.

Consider `CN(C)C/C=C/C(=O)N1CCN(c2nc(OC[C@@H]3CCCN3C)nc3c2CCN(c2cccc4ccccc24)C3)C[C@@H]1CC#N` [Example 235, 2-((S)-1-((E)-4-(dimethylamino)but-2-enoyl)-4-(2-(((S)-1-methylpyrrolidin-2-yl)methoxy)-7-(naphthalen-1-yl)-5,6,7,8-tetrahydropyrido[3,4-d]pyrimidin-4-yl)piperazin-2-yl)acetonitrile], for which the IC50 was in the range of 1 to 1000 nM. For the molecule `C=CC(=O)N1CCN(c2nc(OCCCN3CCOCC3)nc3c2CCN(c2cc(O)cc4ccccc24)C3)CC1` [Example 74, 1-(4-(7-(3-hydroxynaphthalen-1-yl)-2-(3-morpholinopropoxy)-5,6,7,8-tetrahydropyrido[3,4-d]pyrimidin-4-yl)piperazin-1-yl)prop-2-en-1-one], the IC50 is 1 to 1000 nM. The same measure, in the same setting: with `C=CC(=O)N1CCN(c2nc(O[C@H](C)[C@H]3CCCN3C)nc3c2CCN(c2cc(O)cc4ccccc24)C3)CC1` [Example 129, 1-[4-[7-(3-hydroxy-1-naphthyl)-2-[(1R)-1-[(2R)-1-methylpyrrolidin-2-yl]ethoxy]-6,8-dihydro-5H-pyrido[3,4-d]pyrimidin-4-yl]piperazin-1-yl]prop-2-en-1-one] the figure was 1 to 1000 nM. `C=CC(=O)N1CCN(c2nc(OC[C@@H]3CCCN3C)nc3c2CCN(c2ccccc2OC(F)(F)F)C3)CC1CC#N` (stereo partly drawn) [Example 211, 2-(1-acryloyl-4-(2-(((S)-1-methylpyrrolidin-2-yl)methoxy)-7-(2-(trifluoromethoxy)phenyl)-5,6,7,8-tetrahydropyrido[3,4-d]pyrimidin-4-yl)piperazin-2-yl)acetonitrile]: the IC50 is 1 to 1000 nM. The same measure, in the same setting: next, `C=CC(=O)N1CCN(c2nc(OC[C@@H]3CCCN3C)nc3c2CCN(c2c(C(F)(F)F)ccc4[nH]ncc24)C3)CC1` [Example 156, (S)-1-(4-(2-((1-methylpyrrolidin-2-yl)methoxy)-7-(5-(trifluoromethyl)-1H-indazol-4-yl)-5,6,7,8-tetrahydropyrido[3,4-d]pyrimidin-4-yl)piperazin-1-yl)prop-2-en-1-one]: 1 to 1000 nM; `C=CC(=O)N1CCN(c2nc(OC[C@@H]3CCN(C)C3)nc3c2CCN(c2cc(O)cc4ccccc24)C3)CC1` [Example 110, (R)-1-(4-(7-(3-hydroxynaphthalen-1-yl)-2-((1-methylpyrrolidin-3-yl)methoxy)-5,6,7,8-tetrahydropyrido[3,4-d]pyrimidin-4-yl)piperazin-1-yl)prop-2-en-1-one]: 1 to 1000 nM. Same read-out and setting: next, `C=CC(=O)N1CCN(c2nc(OC[C@@H]3CCCN3C)nc3c2CCN(c2cccnc2C(F)(F)F)C3)CC1CC#N` (stereo partly drawn) [Example 226, 2-(1-acryloyl-4-(2-(((S)-1-methylpyrrolidin-2-yl)methoxy)-7-(2-(trifluoromethyl)pyridin-3-yl)-5,6,7,8-tetrahydropyrido[3,4-d]pyrimidin-4-yl)piperazin-2-yl)acetonitrile]: 1 to 1000 nM; `C=CC(=O)N1CCN(c2nc(OCCN3CCC(C)CC3)nc3c2CCN(c2cc(O)cc4ccccc24)C3)CC1` [Example 92, 1-(4-(7-(3-hydroxynaphthalen-1-yl)-2-(2-(4-methylpiperidin-1-yl)ethoxy)-5,6,7,8-tetrahydropyrido[3,4-d]pyrimidin-4-yl)piperazin-1-yl)prop-2-en-1-one]: 1 to 1000 nM. Same read-out and setting: next, `C=CC(=O)N1CCN(c2nc(OCC3CCN(C)C3)nc3c2CCN(c2cc(O)cc4ccccc24)C3)CC1` (stereo not shown) [Example 89, 1-(4-(7-(3-hydroxynaphthalen-1-yl)-2-((1-methylpyrrolidin-3-yl)methoxy)-5,6,7,8-tetrahydropyrido[3,4-d]pyrimidin-4-yl)piperazin-1-yl)prop-2-en-1-one]: 1 to 1000 nM; `C=CC(=O)N1CCN(c2nc(OCCN3CCCC[C@@H]3C)nc3c2CCN(c2cc(O)cc4ccccc24)C3)CC1` [Example 88, (S)-1-(4-(7-(3-hydroxynaphthalen-1-yl)-2-(2-(2-methylpiperidin-1-yl)ethoxy)-5,6,7,8-tetrahydropyrido[3,4-d]pyrimidin-4-yl)piperazin-1-yl)prop-2-en-1-one]: 1 to 1000 nM. As to `C/C=C/C(=O)N1CCN(c2nc(OC[C@@H]3CCCN3C)nc3c2CCN(c2cccc4ccccc24)C3)CC1CC#N` (stereo partly drawn) [Example 263, 2-[1-[(E)-but-2-enoyl]-4-[2-[[(2S)-1-methylpyrrolidin-2-yl]methoxy]-7-(1-naphthyl)-6,8-dihydro-5H-pyrido[3,4-d]pyrimidin-4-yl]piperazin-2-yl]acetonitrile], the IC50 is 1 to 1000 nM. Same read-out and setting: next, `C=CC(=O)N1CCN(c2nc(OCC3CCCN(C)C3)nc3c2CCN(c2cc(O)cc4ccccc24)C3)CC1` (stereo not shown) [Example 72, 1-(4-(7-(3-hydroxynaphthalen-1-yl)-2-((1-methylpiperidin-3-yl)methoxy)-5,6,7,8-tetrahydropyrido[3,4-d]pyrimidin-4-yl)piperazin-1-yl)prop-2-en-1-one]: 1 to 1000 nM; `C=CC(=O)N1CCN(c2nc(O[C@H](C)CN3CCOCC3)nc3c2CCN(c2cc(O)cc4ccccc24)C3)CC1` [Example 56, (R)-1-(4-(7-(3-hydroxynaphthalen-1-yl)-2-((1-morpholinopropan-2-yl)oxy)-5,6,7,8-tetrahydropyrido[3,4-d]pyrimidin-4-yl)piperazin-1-yl)prop-2-en-1-one]: 1 to 1000 nM; `C=CC(=O)N1CCN(c2nc(OCCCN3C[C@@H]4C[C@H]3CO4)nc3c2CCN(c2cc(O)cc4ccccc24)C3)CC1CC#N` (stereo partly drawn) [Example 153, 2-[4-[7-(3-hydroxy-1-naphthyl)-2-[3-[(1S,4S)-2-oxa-5-azabicyclo[2.2.1]heptan-5-yl]propoxy]-6,8-dihydro-5H-pyrido[3,4-d]pyrimidin-4-yl]-1-prop-2-enoyl-piperazin-2-yl]acetonitrile]: 1 to 1000 nM. Still for that read-out and setting: next, `C=CC(=O)N1CCN(c2nc(OCCN(C)C)nc3c2CCN(c2cc(O)cc4ccccc24)C3)C[C@@H]1CC#N` [Example 176, 2-[(2S)-4-[2-[2-(dimethylamino)ethoxy]-7-(3-hydroxy-1-naphthyl)-6,8-dihydro-5H-pyrido[3,4-d]pyrimidin-4-yl]-1-prop-2-enoyl-piperazin-2-yl]acetonitrile]: 1 to 1000 nM; `C=CC(=O)N1CCN(c2nc(OCCN(CC)CC)nc3c2CCN(c2cc(O)cc4ccccc24)C3)CC1` [Example 102]: 1 to 1000 nM; `C=CC(=O)N1CCN(c2nc(OC[C@@H]3CCCN(C)C3)nc3c2CCN(c2cc(O)cc4ccccc24)C3)CC1` [Example 192, (R)-1-(4-(7-(3-hydroxynaphthalen-1-yl)-2-((1-methylpiperidin-3-yl)methoxy)-5,6,7,8-tetrahydropyrido[3,4-d]pyrimidin-4-yl)piperazin-1-yl)prop-2-en-1-one]: 1 to 1000 nM. Consider `C=CC(=O)N1CCN(c2nc(OC[C@@H]3CCCN3C)nc3c2CCN(c2ccc(F)cc2C(F)(F)F)C3)CC1CC#N` (stereo partly drawn) [Example 276, 2-(1-acryloyl-4-(7-(4-fluoro-2-(trifluoromethyl)phenyl)-2-(((S)-1-methylpyrrolidin-2-yl)methoxy)-5,6,7,8-tetrahydropyrido[3,4-d]pyrimidin-4-yl)piperazin-2-yl)acetonitrile], for which the IC50 was in the range of 1 to 1000 nM. The same measure, in the same setting: next, `C=CC(=O)N1CCN(c2nc(OC[C@H]3CN(C)CCO3)nc3c2CCN(c2cccc4ccccc24)C3)CC1CC#N` (stereo partly drawn) [Example 270, 2-(1-acryloyl-4-(2-(((R)-4-methylmorpholin-2-yl)methoxy)-7-(naphthalen-1-yl)-5,6,7,8-tetrahydropyrido[3,4-d]pyrimidin-4-yl)piperazin-2-yl)acetonitrile]: 1 to 1000 nM. The same measure, in the same setting: with `C=CC(=O)N1CCN(c2nc(O[C@H](C)CN(C)C)nc3c2CCN(c2c(C)ccc4[nH]ncc24)C3)CC1CC#N` (stereo partly drawn) [Example 152, 2-[4-[2-[(1R)-2-(dimethylamino)-1-methyl-ethoxy]-7-(5-methyl-1H-indazol-4-yl)-6,8-dihydro-5H-pyrido[3,4-d]pyrimidin-4-yl]-1-prop-2-enoyl-piperazin-2-yl]acetonitrile] the figure was 1 to 1000 nM; with `C=CC(=O)N1CCN(c2nc(OCCN3CCC(OC)CC3)nc3c2CCN(c2cc(O)cc4ccccc24)C3)CC1` [Example 108, 1-(4-(7-(3-hydroxynaphthalen-1-yl)-2-(2-(4-methoxypiperidin-1-yl)ethoxy)-5,6,7,8-tetrahydropyrido[3,4-d]pyrimidin-4-yl)piperazin-1-yl)prop-2-en-1-one], 1 to 1000 nM. Same read-out and setting: with `C=CC(=O)N1CCN(c2nc(OC[C@@H]3C[C@H](OC)CN3C)nc3c2CCN(c2cccc4ccccc24)C3)CC1CC#N` (stereo partly drawn) [Example 222, 2-(1-acryloyl-4-(2-(((2S,4S)-4-methoxy-1-methylpyrrolidin-2-yl)methoxy)-7-(naphthalen-1-yl)-5,6,7,8-tetrahydropyrido[3,4-d]pyrimidin-4-yl)piperazin-2-yl)acetonitrile] the figure was 1 to 1000 nM.
